Tests used:
windgrass = experiment: Test Example 5: herbicidal effect by foliage application, plastic box (Table 20, symbol L); assay type: in vivo, windgrass (Apera spica-venti); settings: foliage application
Method in brief: (§1)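 Plants sown in sterilized diluvial soil and grown 14 days in a greenhouse at 25° C to 30° C, then sprayed on the foliage with the compound's emulsion diluted in water to a predetermined herbicide amount. Injury to weeds and crops scored three weeks after application on a visual rating scale.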

redroot pigweed = experiment: Test Example 5: herbicidal effect by foliage application, plastic box (Table 20, symbol N); assay type: in vivo, redroot pigweed (Amaranthus retroflexus); settings: foliage application
Method in brief: as §1

southern crabgrass = experiment: Test Example 5: herbicidal effect by foliage application, plastic box (Table 20, symbol F); assay type: in vivo, southern crabgrass (Digitaria ciliaris); settings: foliage application
Method in brief: as §1

barnyard grass [1] = experiment: Test Example 5: herbicidal effect by foliage application, plastic box (Table 20, symbol H); assay type: in vivo, barnyard grass (Echinochloa crus-galli); settings: foliage application
Method in brief: as §1

barnyard grass [2] = experiment: Test Example 3: herbicidal effect by foliage application, Wagner pot (Table 18, symbol H); assay type: in vivo, barnyard grass (Echinochloa crus-galli); settings: 320 g/ha
Method in brief: (§2)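 Plants were sown in alluvial soil held under 0.1–0.5 cm standing water and grown 14 days in a greenhouse at 25–30 °C. An emulsifiable formulation, water-diluted to the set dose, was then sprayed onto the foliage, and effects were scored three weeks later using previously defined criteria.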

Italian ryegrass = experiment: Test Example 5: herbicidal effect by foliage application, plastic box (Table 20, symbol K); assay type: in vivo, Italian ryegrass (Lolium multiflorum); settings: foliage application
Method in brief: as §1

chickweed = experiment: Test Example 5: herbicidal effect by foliage application, plastic box (Table 20, symbol P); assay type: in vivo, common chickweed (Stellaria media); settings: foliage application
Method in brief: as §1

false cleavers = experiment: Test Example 5: herbicidal effect by foliage application, plastic box (Table 20, symbol Q); assay type: in vivo, false cleavers (Galium spurium); settings: foliage application
Method in brief: as §1

persian speedwell = experiment: Test Example 5: herbicidal effect by foliage application, plastic box (Table 20, symbol R); assay type: in vivo, Persian speedwell (Veronica persica); settings: foliage application
Method in brief: as §1

blackgrass = experiment: Test Example 5: herbicidal effect by foliage application, plastic box (Table 20, symbol J); assay type: in vivo, blackgrass (Alopecurus myosuroides); settings: foliage application
Method in brief: as §1

lambsquarters = experiment: Test Example 5: herbicidal effect by foliage application, plastic box (Table 20, symbol O); assay type: in vivo, lambsquarters (Chenopodium album); settings: foliage application
Method in brief: as §1

velvetleaf = experiment: Test Example 5: herbicidal effect by foliage application, plastic box (Table 20, symbol M); assay type: in vivo, velvetleaf (Abutilon theophrasti); settings: foliage application
Method in brief: as §1

Chinese sprangletop = experiment: Test Example 3: herbicidal effect by foliage application, Wagner pot (Table 18, symbol D); assay type: in vivo, chinese sprangletop (Leptochloa chinensis); settings: 320 g/ha
Method in brief: as §2

wild oat = experiment: Test Example 5: herbicidal effect by foliage application, plastic box (Table 20, symbol I); assay type: in vivo, wild oat (Avena fatua); settings: foliage application
Method in brief: as §1

rice flat sedge = experiment: Test Example 3: herbicidal effect by foliage application, Wagner pot (Table 18, symbol E); assay type: in vivo, rice flat sedge (Cyperus iria); settings: 320 g/ha
Method in brief: as §2

green foxtail = experiment: Test Example 5: herbicidal effect by foliage application, plastic box (Table 20, symbol G); assay type: in vivo, green foxtail (Setaria viridis); settings: foliage application
Method in brief: as §1

[3] = 320 g/ha, three weeks after application
[4] = AAH 80 g/ha, three weeks after application
[5] = 320 g/ha, evaluated three weeks after application

| Compound | herbicidal effect grade, L: windgrass (windgrass; [3]) | herbicidal effect grade, N: redroot pigweed (redroot pigweed; [3]) | herbicidal effect grade, F: southern crabgrass (southern crabgrass; [3]) | herbicidal effect grade, H: barnyard grass (barnyard grass [1]; [3]) | herbicidal effect on H (barnyard grass), rating 0-5 (barnyard grass [2]) | herbicidal effect grade, K: Italian ryegrass (Italian ryegrass; [3]) | herbicidal effect grade, P: chickweed (chickweed; [3]) | herbicidal effect grade, Q: false cleavers (false cleavers; [3]) | herbicidal effect grade, R: persian speedwell (persian speedwell; [3]) | herbicidal effect grade, J: blackgrass (blackgrass; [3]) | herbicidal effect grade, O: lambsquarters (lambsquarters; [3]) | herbicidal effect grade, M: velvetleaf (velvetleaf; [3]) | herbicidal effect on D (Chinese sprangletop), rating 0-5 (Chinese sprangletop) | herbicidal effect grade, I: wild oat (wild oat; [3]) | herbicidal effect on E (rice flat sedge), rating 0-5 (rice flat sedge) | herbicidal effect grade, G: green foxtail (green foxtail; [3]) | also measured |
| --- | --- | --- | --- | --- | --- | --- | --- | --- | --- | --- | --- | --- | --- | --- | --- | --- | --- |
| Cc1nn(C)c(=O)c(-c2c(-c3ccccc3O)sc3ccccc23)c1O [1-009] | 0 (Herbicidal rate of 5% or less (almost no effect)) | 0 (Herbicidal rate of 5% or less (almost no effect)) | 3 (Herbicidal rate of 40% or more and less than 70%) | 2 (Herbicidal rate of 20% or more and less than 40%) | 3 (Herbicidal rate of 40% or more and less than 70%) | 0 (Herbicidal rate of 5% or less (almost no effect)) | 4 (Herbicidal rate of 70% or more and less than 90%) | 0 (Herbicidal rate of 5% or less (almost no effect)) | 4 (Herbicidal rate of 70% or more and less than 90%) | 0 (Herbicidal rate of 5% or less (almost no effect)) | 0 (Herbicidal rate of 5% or less (almost no effect)) | 0 (Herbicidal rate of 5% or less (almost no effect)) | 2 (Herbicidal rate of 20% or more and less than 40%) | 0 (Herbicidal rate of 5% or less (almost no effect)) | 2 (Herbicidal rate of 20% or more and less than 40%) | 3 (Herbicidal rate of 40% or more and less than 70%) | – |
| Cc1nn(C)c(=O)c(-c2c(-c3ccccc3Oc3ccccc3)sc3ccccc23)c1O [1-033] | 0 (Herbicidal rate of 5% or less (almost no effect)) | 0 (Herbicidal rate of 5% or less (almost no effect)) | 3 (Herbicidal rate of 40% or more and less than 70%) | 2 (Herbicidal rate of 20% or more and less than 40%) | 1 (Herbicidal rate of 5% or more and less than 20%) | 0 (Herbicidal rate of 5% or less (almost no effect)) | 1 (Herbicidal rate of 5% or more and less than 20%) | 4 (Herbicidal rate of 70% or more and less than 90%) | 3 (Herbicidal rate of 40% or more and less than 70%) | 0 (Herbicidal rate of 5% or less (almost no effect)) | 0 (Herbicidal rate of 5% or less (almost no effect)) | 0 (Herbicidal rate of 5% or less (almost no effect)) | 0 (Herbicidal rate of 5% or less (almost no effect)) | 0 (Herbicidal rate of 5% or less (almost no effect)) | 1 (Herbicidal rate of 5% or more and less than 20%) | 0 (Herbicidal rate of 5% or less (almost no effect)) | – |
| CSc1cc(F)ccc1-c1sc2ccccc2c1-c1c(O)c(C)nn(C)c1=O [1-063] | – | 0 (Herbicidal rate of 5% or less (almost no effect)) | 0 (Herbicidal rate of 5% or less (almost no effect)) | 0 (Herbicidal rate of 5% or less (almost no effect)) | 2 (Herbicidal rate of 20% or more and less than 40%) | 1 (Herbicidal rate of 5% or more and less than 20%) | 5 (Herbicidal rate of 90% or more (almost completely withered)) | 2 (Herbicidal rate of 20% or more and less than 40%) | 4 (Herbicidal rate of 70% or more and less than 90%) | 3 (Herbicidal rate of 40% or more and less than 70%) | 3 (Herbicidal rate of 40% or more and less than 70%) | 0 (Herbicidal rate of 5% or less (almost no effect)) | 0 (Herbicidal rate of 5% or less (almost no effect)) | 2 (Herbicidal rate of 20% or more and less than 40%) | 3 (Herbicidal rate of 40% or more and less than 70%) | 0 (Herbicidal rate of 5% or less (almost no effect)) | – |
| CCCC(=O)Oc1c(OC)nn(C)c(=O)c1-c1c(-c2ccc(-c3ccccc3)cc2)sc2ccccc12 [1-167] | – | – | – | – | – | – | – | – | – | – | – | – | – | – | – | – | L: windgrass, herbicidal effect (windgrass; [4]): 0 (Herbicidal rate of 5% or less (almost no effect)); N: redroot pigweed, herbicidal effect (redroot pigweed; [4]): 3 (Herbicidal rate of 40% or more and less than 70%); F: southern crabgrass, herbicidal effect (southern crabgrass; [4]): 0 (Herbicidal rate of 5% or less (almost no effect)); H: barnyard grass, herbicidal effect (barnyard grass [1]; [4]): 0 (Herbicidal rate of 5% or less (almost no effect)); K: Italian ryegrass, herbicidal effect (Italian ryegrass; [4]): 0 (Herbicidal rate of 5% or less (almost no effect)); P: chickweed, herbicidal effect (chickweed; [4]): 1 (Herbicidal rate of 5% or more and less than 20%); Q: false cleavers, herbicidal effect (false cleavers; [4]): 3 (Herbicidal rate of 40% or more and less than 70%); R: persian speedwell, herbicidal effect (persian speedwell; [4]): 3 (Herbicidal rate of 40% or more and less than 70%); J: blackgrass, herbicidal effect (blackgrass; [4]): 0 (Herbicidal rate of 5% or less (almost no effect)); O: lambsquarters, herbicidal effect (lambsquarters; [4]): 2 (Herbicidal rate of 20% or more and less than 40%); M: velvetleaf, herbicidal effect (velvetleaf; [4]): 0 (Herbicidal rate of 5% or less (almost no effect)); I: wild oat, herbicidal effect (wild oat; [4]): 0 (Herbicidal rate of 5% or less (almost no effect)); G: green foxtail, herbicidal effect (green foxtail; [4]): 0 (Herbicidal rate of 5% or less (almost no effect)) |
| CCCC(=O)Oc1c(C)nn(C)c(=O)c1-c1c(-c2ccc(OC)c(C)c2)sc2ccc(Cl)cc12 [2-120] | – | – | – | – | – | – | – | – | – | – | – | – | – | – | – | – | herbicidal effect on L: windgrass (windgrass; [5]): 0 (Herbicidal rate of 5% or less (almost no effect)); herbicidal effect on N: redroot pigweed (redroot pigweed; [5]): 0 (Herbicidal rate of 5% or less (almost no effect)); herbicidal effect on F: southern crabgrass (southern crabgrass; [5]): 0 (Herbicidal rate of 5% or less (almost no effect)); herbicidal effect on H: barnyard grass (barnyard grass [1]; [5]): 0 (Herbicidal rate of 5% or less (almost no effect)); herbicidal effect on K: Italian ryegrass (Italian ryegrass; [5]): 0 (Herbicidal rate of 5% or less (almost no effect)); herbicidal effect on P: chickweed (chickweed; [5]): 5 (Herbicidal rate of 90% or more (almost completely withered)); herbicidal effect on Q: false cleavers (false cleavers; [5]): 4 (Herbicidal rate of 70% or more and less than 90%); herbicidal effect on R: persian speedwell (persian speedwell; [5]): 5 (Herbicidal rate of 90% or more (almost completely withered)); herbicidal effect on J: blackgrass (blackgrass; [5]): 0 (Herbicidal rate of 5% or less (almost no effect)); herbicidal effect on O: lambsquarters (lambsquarters; [5]): 0 (Herbicidal rate of 5% or less (almost no effect)); herbicidal effect on M: velvetleaf (velvetleaf; [5]): 0 (Herbicidal rate of 5% or less (almost no effect)); herbicidal effect on I: wild oat (wild oat; [5]): 0 (Herbicidal rate of 5% or less (almost no effect)); herbicidal effect on G: green foxtail (green foxtail; [5]): 0 (Herbicidal rate of 5% or less (almost no effect)) |

Source: patent US20230085307A1, “PYRIDAZINONE COMPOUND AND HERBICIDE” (NISSAN CHEMICAL CORPORATION, priority 2019, published 2023)
